The record followed here is ChEMBL document CHEMBL5584232, “Hijacking monopolar spindle 1 (MPS1) for various cancer types by small molecular inhibitors: Deep insights from a decade of research and patents” (Eur J Med Chem, 2024).

Structures are written as SMILES. Some results are limits rather than exact numbers.

A short description of data set [1]: Clearance in Wistar rat at 1 mg/kg, iv measured after 24 hrs by LC-MS/MS analysis. The format is ADME, organism-based. Particulars: in vivo.
Data set [2] in a line: Dose normalized AUC in Wistar rat at 1 mg/kg, po measured for 24 hrs by LC-MS/MS analysis. The following applies: in vivo. The format is ADME, organism-based.
Data set [3] can be described thus: Clearance in Beagle dog at 0.5 mg/kg, iv measured for 24 hrs by LC-MS/MS analysis. The format is ADME, organism-based, Canis lupus familiaris. Particulars: in vivo.
Data set [4] in a line: Dose normalized AUC in Beagle dog at 1 mg/kg, po measured for 24 hrs by LC-MS/MS analysis. The format is ADME, organism-based, Canis lupus familiaris. Particulars: in vivo.
Data set [5] is described as follows: Cmax in ICR mouse at 3 mg/kg, po. The following applies: in vivo. The format is ADME, organism-based.
Data set [6] has as its system CAL-51. Put plainly: Antiproliferative activity against human CAL-51 cells assessed as reduction in cell viability incubated for 72 hrs by MTT assay. The format is functional, cell-based. The following applies: CAL-51, 72 h. For orientation: Tetrazolium dyes change colour on reduction, which living cells bring about.
Data set [7] is described as follows: AUC in Sprague-Dawley rat at 3 mg/kg, po by LC-MS/MS analysis. The format is ADME, organism-based. Particulars: in vivo.
Data set [8] deals with T1, Dual specificity protein kinase TTK (Homo sapiens, UniProt P33981).
T1 sequence (P33981 whole entry): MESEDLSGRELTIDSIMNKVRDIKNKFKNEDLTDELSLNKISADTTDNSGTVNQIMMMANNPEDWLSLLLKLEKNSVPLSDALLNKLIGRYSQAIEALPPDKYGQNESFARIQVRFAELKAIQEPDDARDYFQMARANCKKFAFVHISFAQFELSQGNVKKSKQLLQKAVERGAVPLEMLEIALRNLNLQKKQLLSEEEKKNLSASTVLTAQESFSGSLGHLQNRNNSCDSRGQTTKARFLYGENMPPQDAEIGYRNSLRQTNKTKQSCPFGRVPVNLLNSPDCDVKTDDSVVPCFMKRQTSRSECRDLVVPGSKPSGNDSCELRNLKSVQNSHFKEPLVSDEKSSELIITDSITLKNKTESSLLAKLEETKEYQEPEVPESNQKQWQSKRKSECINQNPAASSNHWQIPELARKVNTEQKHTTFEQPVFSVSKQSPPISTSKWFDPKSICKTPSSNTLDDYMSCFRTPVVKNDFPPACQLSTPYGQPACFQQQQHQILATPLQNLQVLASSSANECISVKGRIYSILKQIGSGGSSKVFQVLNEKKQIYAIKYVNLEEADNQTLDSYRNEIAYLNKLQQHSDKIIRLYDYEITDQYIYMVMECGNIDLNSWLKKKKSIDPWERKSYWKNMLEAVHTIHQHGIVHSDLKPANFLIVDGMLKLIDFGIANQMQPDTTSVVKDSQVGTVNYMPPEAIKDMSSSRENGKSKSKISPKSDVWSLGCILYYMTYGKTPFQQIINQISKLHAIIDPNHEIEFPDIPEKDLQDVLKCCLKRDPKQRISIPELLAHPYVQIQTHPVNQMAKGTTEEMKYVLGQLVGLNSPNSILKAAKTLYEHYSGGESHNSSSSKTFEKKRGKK
Put plainly: Inhibition of MPS1 (unknown origin).

Data set [9] can be described thus: AUC in ICR mouse at 3 mg/kg, po and measured after 24 hrs by LC-MS/MS analysis. The format is ADME, organism-based. Particulars: in vivo.
Data set [10] can be described thus: Oral bioavailability in ICR mouse at 5 mg/kg by LC-MS/MS analysis. The format is ADME, organism-based. The following applies: in vivo.
A short description of data set [11]: Cmax in Sprague-Dawley rat at 3 mg/kg, po by LC-MS/MS analysis. The format is ADME, organism-based. Particulars: in vivo.
A further data set deals with A549. Put plainly: Antiproliferative activity against human A549 cells assessed as reduction in cell growth incubated for 48 hrs by MTT assay. The format is functional, cell-based. Particulars: A549, 48 h.
The test system of another data set is COLO 205. Put plainly: Antiproliferative activity against human COLO 205 cells assessed as reduction in cell viability incubated for 48 hrs by MTT assay. Particulars: COLO 205, 48 h. The format is functional, cell-based.
A short description of data set [12]: Half life in mouse. The format is ADME, organism-based. Particulars: in vivo.
The nature of data set [13]: AUC in mouse. The following applies: in vivo. The format is ADME, organism-based.
The subject of data set [14] is CAL-51. Put plainly: Antiproliferative activity against human CAL-51 cells assessed as inhibition of cell growth incubated for 72 hrs by MTT assay. The format is functional, cell-based. Particulars: CAL-51, 72 h.
The next data set addresses T2, Aurora kinase A (Homo sapiens, UniProt O14965).
T2 sequence (O14965 whole entry): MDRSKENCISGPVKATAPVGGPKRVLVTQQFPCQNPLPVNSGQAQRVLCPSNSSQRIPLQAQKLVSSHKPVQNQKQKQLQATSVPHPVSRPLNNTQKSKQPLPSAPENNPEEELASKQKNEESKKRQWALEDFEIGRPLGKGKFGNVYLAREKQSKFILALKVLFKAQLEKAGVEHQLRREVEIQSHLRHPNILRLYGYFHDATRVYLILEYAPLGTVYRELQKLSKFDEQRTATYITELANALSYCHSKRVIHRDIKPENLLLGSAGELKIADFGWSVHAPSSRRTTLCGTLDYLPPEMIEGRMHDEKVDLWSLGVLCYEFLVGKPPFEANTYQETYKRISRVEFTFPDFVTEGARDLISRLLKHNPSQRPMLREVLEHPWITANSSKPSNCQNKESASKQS
Put plainly: Inhibition of AURORA-A (unknown origin).

Data set [15] can be described thus: Metabolic stability in mouse liver microsomes assessed as drug metabolism measured after 30 mins. The format is ADME, Microsome. Particulars: read-out: Drug metabolism.
A short description of data set [16]: Intrinsic clearance in human liver microsomes. The format is ADME, Microsome. On the technique in general: Liver microsomes are vesicles of endoplasmic reticulum, rich in cytochrome P450 enzymes.
Data set [17] is described as follows: Oral bioavailability in rat at 1 mg/kg. The format is ADME, organism-based. The following applies: in vivo.
A short description of data set [18]: Clearance in rat at 1 mg/kg, po. The format is ADME, organism-based. Particulars: in vivo.
Data set [19] has as its target Cyclin-dependent kinase 2 (Homo sapiens, UniProt P24941). Put plainly: Inhibition of CDK2 (unknown origin).

As for `COc1ccc(Oc2cc(NCCC(F)(F)F)c3ncc(-c4ccc(C(=O)NC5CC5)c(C)c4)n3n2)c(F)c1F` [BAY-1217389], the clearance in data set [1] is 8.67 mL/min/kg; in data set [3] it was 7.33 mL/min/kg. Also, the AUC/dose worked out at 2.4 kg·h/L in [2] and 2.5 kg·h/L in data set [4].

Regarding `C[C@H](Oc1cc(C(=O)N(C)C)ccc1Nc1nc(O[C@H]2CC[C@@](C)(O)CC2)c2c(Cl)c[nH]c2n1)C(F)(F)F`, the highest concentration (Cmax) in [5] is 5.2 µM; in data set [11], 4.35 µM. Besides, the concentration for half-maximal inhibition (IC50) was determined as 10 nM in the data set with CAL-51 [6] and 0.7 nM in data set [8]. In addition, in [7], the area under the curve (AUC) amounted to 26.3 µM·h. The same molecule registered an exposure (AUC) at 24 h in data set [9] of 22.5 µM·h. In data set [10], this molecule had a bioavailability of 60%.

Regarding `CCOc1cc2c(-c3cccc(S(N)(=O)=O)c3)n[nH]c2cc1-c1cnn(C)c1`, in the data set with A549, the half-maximal inhibitory concentration (IC50) stood at 386 nM.

Regarding `CCC(=O)N[C@H]1CC[C@@H](n2c(=O)cc(C)c3cnc(Nc4ccc(N5CCN(C(=O)CCC#Cc6ccc7c(c6)CN(C6CCC(=O)NC6=O)C7=O)CC5)cc4OC)nc32)CC1` (stereo not given in full), in the data set on COLO 205, the IC50 is 100 nM. In addition, the half-life in data set [12] was 4.3 h. For the same molecule, in data set [13], the AUC was found to be 2.23 µM·h.

`CNC(=O)c1ccc(Nc2nc(O[C@H]3CCOC3)c3c(-c4ccc5nc(C)oc5c4)c[nH]c3n2)c(OC)c1`: the IC50 in the data set with CAL-51 [14] is 18 nM.

Regarding `CN(C)C(=O)c1cc2cnc(Nc3ccc(S(=O)(=O)N(C)C)cc3Cl)cc2[nH]1`, the concentration for half-maximal inhibition (IC50) at Aurora kinase A is above 40000 nM. Also, in data set [15], the metabolised at 0.5 h worked out at 25%.

With `CN(C)C(=O)c1ccc(Nc2cc3c(cn2)cc(C(=O)N(C)C)n3C(=O)OC(C)(C)C)c(Cl)c1`, the 50% inhibitory concentration (IC50) on Aurora kinase A stood at 23000 nM. Also, the metabolised at 0.5 h in data set [15] is 48%.

Take `COc1cc(C(=O)NCC(C)(C)O)ccc1Nc1nc(OC2CCCC2)c2c(-c3ccc4nc(C)oc4c3)c[nH]c2n1`: the concentration for half-maximal inhibition (IC50) with CAL-51 [14] was 60 nM.

`CN1CCC(c2ccc(Nc3ncc4c(n3)-n3ccc(C(N)=O)c3CC4)cc2)CC1`: the IC50 in data set [8] was found to be 8.7 nM.

`COc1cc(C(=O)N(C)C)ccc1Nc1nc(OC2CCCC2)c2cc[nH]c2n1`: the 50% inhibitory concentration (IC50) in data set [8] came to 1 nM.

Consider `CCOc1cc2c(-c3cccc(S(N)(=O)=O)c3)n[nH]c2cc1-c1cn[nH]c1`, for which the IC50 with A549 turned out to be 386 nM.

In turn, `CCOc1cc(-c2nncn2C)ccc1Nc1ncc2cc(C)nc(NCC(C)(C)C)c2n1` [BOS-172722] displayed a CLH in [16] of 8 µL/min/µg.

`Cn1cc(-c2cc3[nH]nc(-c4cccc(S(N)(=O)=O)c4)c3cc2OC2CCCCC2)cn1` displayed a bioavailability in data set [17] of 17%.

`CC(=O)Nc1cccc(-c2n[nH]c3cc(-c4cnn(C)c4)c(NC4CCCCC4)cc23)c1` yielded an apparent clearance CL/F in data set [18] of 33 mL/min/kg.

In the case of `CN(C)C(=O)c1cc2cnc(Nc3ccc(-c4cncn4C)cc3Cl)cc2n1C(=O)OC(C)(C)C`, the concentration for half-maximal inhibition (IC50) at Aurora kinase A was above 40000 nM; in [19], above 100000 nM. Besides, the metabolised at 0.5 h in [15] amounted to 28%.

The term clearance denotes a measure of how efficiently the substance is removed, as volume per time. A higher clearance goes with a high capacity for elimination. As usually defined, the Cmax is the maximum level reached in the sampled fluid or tissue. Broadly, the IC50 is the midpoint of a concentration-inhibition curve. The term AUC denotes the area under the concentration-time curve, a measure of exposure. Higher therefore signals more exposure. Usually bioavailability stands for the share of a dose that reaches the circulation, judged against a reference dose that is usually intravenous. Low values mean poor availability, high ones good availability. Broadly, the half-life is how long it takes for the measured level to halve. A high value points to slow decline. Usually CL/F stands for clearance divided by bioavailability, as obtained after extravascular dosing.
